Among the data in patent publication US12030835B2, “Substituted amide compounds useful as farnesoid X receptor modulators” (BRISTOL-MYERS SQUIBB COMPANY, priority 2019, dated 2024) are EC50 values, retold here.

The target in this experiment is T1, human FXR (Homo sapiens, UniProt Q96RI1).
T1 construct: expressed in transfected cells
T1 sequence (Q96RI1 262-486 limits assumed): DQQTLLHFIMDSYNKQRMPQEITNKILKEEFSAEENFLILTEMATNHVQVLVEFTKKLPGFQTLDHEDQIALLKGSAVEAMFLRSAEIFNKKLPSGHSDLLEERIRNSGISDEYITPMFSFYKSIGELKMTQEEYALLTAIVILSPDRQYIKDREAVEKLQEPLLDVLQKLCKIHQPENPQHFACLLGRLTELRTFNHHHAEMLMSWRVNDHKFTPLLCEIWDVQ
Nature of the experiment: transient human FXR/Gal4-luciferase reporter assay. The conditions noted are these: Gal4-hFXR (ligand binding domain) fusion transiently transfected in HEK293 Gal4-luciferase reporter cells; overnight incubation; response as percentage of 8 μM GW-4064 control. It is filed as cell-based. The procedure: A Gal4-hFXR fusion construct reporter system was used as the primary assay to characterize compound activity. A construct including 5 copies of the Gal4 promoter response element upstream of a firefly luciferase reporter cDNA was stably expressed in HEK293 cells. This reporter cell line was maintained in Dulbecco's Modified Eagle's medium (DMEM; Gibco) supplemented with 1% penicillin-streptomycin (P/S) solution, 500 μg/ml Zeocin and 10% charcoal/dextran-treated fetal bovine serum (cs-FBS) at 37° C. in a humidified 5% CO2 atmosphere. Another plasmid was constructed in which the human cytomegalovirus promoter in the pcDNA3.1 vector directs the expression of the cDNA encoding a fusion protein comprised of the DNA binding domain from the Gal4 transcription factor fused to the ligand binding domain from human FXR.
The day prior to transfection, the reporter cells in culture are detached from the plate with trypsin and plated into a T75 flask at a sufficient density to achieve approximately 90% confluence the next morning. The transfection reagents are prepared by separately diluting 25 μg of the pcDNA3.1-Gal4-FXR plasmid into 1.87 mL of Opti-MEM (Thermo-Fisher), and 40 μL of Lipofectamine 2000 (Thermo-Fisher) into 1.87 mL of Opti-MEM, and then adding the diluted DNA solution into the diluted Lipofectamine 2000 solution and incubating at room temperature for 15-20 minutes. The mixture is further diluted with 10 ml of a solution comprised of DMEM, 10% cs-FBS, and 1% P/S immediately prior to transferring to the cells. The maintenance culture media is aspirated from the cells and the final transfection mixture is added before the cells are incubated overnight at 37° C. in a humidified 5% CO2 atmosphere. This protocol can be scaled up, and the transiently transfected cells can be cryopreserved in an assay-ready format.
For compound testing, 100 nL of the compounds (serial dilutions in DMSO) are dispensed with an Echo acoustic dispenser (Labcyte) into the wells of a Corning/Costar clear bottom 384-well white plate. The transfected cells are harvested, counted, and diluted such that 10-25,000 cells in 25 μL are plated into each well of the 384-well compound assay plate. The compound-treated cells are incubated overnight at 37° C. in a humidified 5% CO2 atmosphere. The next morning 25 μL of Steady-Glo (Promega) are added to each well of the plate, the mixture is incubated for 15 min. with shaking, and luminescence is measured on an Envision (Perkin Elmer) plate reader.
In the case of `COC(=O)/C=C/c1cccc(N(CC23CCC(c4nc(C)no4)(CC2)CC3)C(=O)C2CCOCC2)c1` [Example 23, Methyl (E)-3-(3-(N-((4-(3-methyl-1,2,4-oxadiazol-5-yl)bicyclo[2.2.2]octan-1-yl)methyl)tetrahydro-2H-pyran-4-carboxamido)phenyl)acrylate], a half-maximal effect (EC50) was put at 920 nM.
Compound `COC(=O)/C=C/c1cccc(N(CC23CCC(c4nc(C)no4)(CC2)CC3)C(=O)C2CCCCCC2)c1` [Example 24, methyl (E)-3-(3-(N-((4-(3-methyl-1,2,4-oxadiazol-5-yl)bicyclo[2.2.2]octan-1-yl)methyl)cycloheptanecarboxamido)phenyl) acrylate] yielded an EC50 of 150 nM.
On to `COC(=O)/C=C/c1cccc(N(CC23CCC(c4nc(C)no4)(CC2)CC3)C(=O)C23CC(F)(C2)C3)c1` [Example 25, methyl (E)-3-(3-(3-fluoro-N-((4-(3-methyl-1,2,4-oxadiazol-5-yl)bicyclo[2.2.2]octan-1-yl)methyl)bicyclo[1.1.1]pentane-1-carboxamido)phenyl)acrylate], for which the EC50 is 123 nM.
Then `COC(=O)/C=C/c1cccc(N(CC23CCC(c4nc(C)no4)(CC2)CC3)C(=O)C2CC(F)(F)C2)c1` [Example 26, methyl (E)-3-(3-(3,3-difluoro-N-((4-(3-methyl-1,2,4-oxadiazol-5-yl)bicyclo[2.2.2]octan-1-yl)methyl)cyclobutane-1-carboxamido)phenyl)acrylate], with 302 nM; and `Cc1noc(C23CCC(CN(C(=O)C4CCCCC4)c4cccc(/C=C/C(=O)N(C)C)c4)(CC2)CC3)n1` [Example 27, (E)-N-(3-(3-(dimethylamino)-3-oxoprop-1-en-1-yl)phenyl)-N-((4-(3-methyl-1,2,4-oxadiazol-5-yl)bicyclo[2.2.2]octan-1-yl)methyl)cyclohexanecarboxamide], with 4460 nM.
Then `COC(=O)/C=C/c1cccc(N(CC23CCC(c4ccc(C5CC5)cc4)(CC2)CC3)C(=O)C2CC2)c1` [Example 28, Methyl (E)-3-(3-(N-((4-(4-cyclopropylphenyl)bicyclo[2.2.2]octan-1-yl)methyl)cyclopropanecarboxamido)phenyl)acrylate], with 947 nM; and `COC(=O)/C=C/c1cccc(N(CC23CCC(c4ccc(C5CC5)cc4)(CC2)CC3)C(=O)C2CCCCC2)c1` [Example 29, Methyl (E)-3-(3-(N-((4-(4-cyclopropylphenyl)bicyclo[2.2.2]octan-1-yl)methyl)cyclohexanecarboxamido)phenyl)acrylate], with 161 nM.
The value for `COC(=O)C1=Cc2cccc(N(CC34CCC(c5ccc(C6CC6)cc5)(CC3)CC4)C(=O)C3CCCCC3)c2CC1` [Example 30, Methyl 5-(N-((4-(4-cyclopropylphenyl)bicyclo[2.2.2]octan-1-yl)methyl)cyclohexanecarboxamido)-3,4-dihydronaphthalene-2-carboxylate] was 195 nM; that for `COC(=O)C1=Cc2cccc(N(CC34CCC(c5ccc(C6CC6)cc5)(CC3)CC4)C(=O)C3CC3)c2CC1` [Example 31, methyl 5-(N-((4-(4-cyclopropylphenyl)bicyclo[2.2.2]octan-1-yl)methyl)cyclopropanecarboxamido)-3,4-dihydronaphthalene-2-carboxylate] was 796 nM; that for `COC(=O)C1=Cc2cccc(N(CC34CCC(c5ccc(C6CC6)cc5)(CC3)CC4)C(=O)C(C)C)c2CC1` [Example 32, methyl 5-(N-((4-(4-cyclopropylphenyl)bicyclo[2.2.2]octan-1-yl)methyl)isobutyramido)-3,4-dihydronaphthalene-2-carboxylate] was 466 nM.
In the case of `COC(=O)/C=C/c1cccc(N(CC23CCC(c4nc5ccccc5s4)(CC2)CC3)C(=O)C2CC2)c1` [Example 33, Methyl (E)-3-(3-(N-((4-(benzo[d]thiazol-2-yl)bicyclo[2.2.2]octan-1-yl)methyl)cyclopropanecarboxamido)phenyl)acrylate], the EC50 came out at 414 nM.
`COC(=O)/C=C/c1cccc(N(CC23CCC(c4nc5ccccc5s4)(CC2)CC3)C(=O)C2CCCCC2)c1` [Example 34, Methyl (E)-3-(3-(N-((4-(benzo[d]thiazol-2-yl)bicyclo[2.2.2]octan-1-yl)methyl)cyclohexanecarboxamido)phenyl)acrylate] showed an EC50 of 222 nM.
Then `COc1ccc(C23CCC(CN(C(=O)C4CCCCC4)c4cccc(/C=C/c5nc(C)no5)c4)(CC2)CC3)cc1` [Example 35, (E)-N-((4-(4-methoxyphenyl)bicyclo[2.2.2]octan-1-yl)methyl)-N-(3-(2-(3-methyl-1,2,4-oxadiazol-5-yl)vinyl)phenyl)cyclohexanecarboxamide], with 446 nM; and `COC(=O)/C=C(\C)c1cccc(N(CC23CCC(c4ccc(C5CC5)cc4)(CC2)CC3)C(=O)C2CC2)c1` [Example 36, Methyl (E)-3-(3-(N-((4-(4-cyclopropylphenyl)bicyclo[2.2.2]octan-1-yl)methyl)cyclopropanecarboxamido)phenyl)but-2-enoate], with 1780 nM.
The value for `COC(=O)/C=C(\C)c1cccc(N(CC23CCC(c4ccc(C5CC5)cc4)(CC2)CC3)C(=O)C2CCCCC2)c1` [Example 37, Methyl (E)-3-(3-(N-((4-(4-cyclopropylphenyl)bicyclo[2.2.2]octan-1-yl)methyl)cyclohexanecarboxamido)phenyl)but-2-enoate] was 498 nM.
Then `COC(=O)/C=C/c1cccc(N(CC23CCC(c4ccc(C(C)C)cc4)(CC2)CC3)C(=O)C2CCCCC2)c1` [Example 38, Methyl (E)-3-(3-(N-((4-(4-isopropylphenyl)bicyclo[2.2.2]octan-1-yl)methyl)cyclohexanecarboxamido)phenyl)acrylate], with 196 nM; and `COC(=O)/C=C/c1cccc(N(CC23CCC(c4ccc(C(C)C)cc4)(CC2)CC3)C(=O)C2CC2)c1` [Example 39, Methyl (E)-3-(3-(N-((4-(4-isopropylphenyl)bicyclo[2.2.2]octan-1-yl)methyl)cyclopropanecarboxamido)phenyl)acrylate], with 1430 nM; and `COC(=O)C1=Cc2cccc(N(CC34CCC(c5nc(C)no5)(CC3)CC4)C(=O)C3CCCCC3)c2CC1` [Example 40, Methyl 5-(N-((4-(3-methyl-1,2,4-oxadiazol-5-yl)bicyclo[2.2.2]octan-1-yl)methyl)cyclohexanecarboxamido)-3,4-dihydronaphthalene-2-carboxylate], with 1070 nM.
`COC(=O)/C=C/c1cccc(N(CC23CCC(c4nc(N5CCOCC5)no4)(CC2)CC3)C(=O)C2CCCCC2)c1` [Example 42, Methyl (E)-3-(3-(N-((4-(3-morpholino-1,2,4-oxadiazol-5-yl)bicyclo[2.2.2]octan-1-yl)methyl)cyclohexanecarboxamido)phenyl)acrylate] had an EC50 of 118 nM.
Take `COC(=O)/C=C/c1cccc(N(CC23CCC(c4nc(C5CCOCC5)no4)(CC2)CC3)C(=O)C2CCCCC2)c1` [Example 43, Methyl (E)-3-(3-(N-((4-(3-(tetrahydro-2H-pyran-4-yl)-1,2,4-oxadiazol-5-yl)bicyclo[2.2.2]octan-1-yl)methyl)cyclohexanecarboxamido)phenyl)acrylate]: the EC50 is 107 nM.
The value for `COC(=O)/C=C/c1cccc(N(CC23CCC(c4noc(C)n4)(CC2)CC3)C(=O)C2CCCCC2)c1` [Example 44, Methyl (E)-3-(3-(N-((4-(5-methyl-1,2,4-oxadiazol-3-yl)bicyclo[2.2.2]octan-1-yl)methyl)cyclohexanecarboxamido)phenyl)acrylate] was 87 nM; that for `COC(=O)C1=Cc2cccc(N(CC34CCC(c5ccc6c(cnn6C)c5)(CC3)OC4)C(=O)C3CCCCC3)c2CC1` [Example 45, Methyl 5-(N-((1-(1-methyl-1H-indazol-5-yl)-2-oxabicyclo[2.2.2]octan-4-yl)methyl)cyclohexanecarboxamido)-3,4-dihydronaphthalene-2-carboxylate] was 1150 nM; that for `CC(C)(O)C#Cc1cccc(N(CC23CCC(c4nnc(C(C)(C)C)o4)(CC2)CC3)C(=O)C23CC(F)(C2)C3)c1` [Example 48, N-((4-(5-(tert-Butyl)-1,3,4-oxadiazol-2-yl)bicyclo[2.2.2]octan-1-yl)methyl)-3-fluoro-N-(3-(3-hydroxy-3-methylbut-1-yn-1-yl)phenyl)bicyclo[1.1.1]pentane-1-carboxamide] was 30 nM.

One may read the EC50 as the midpoint of the concentration-response curve.
